The subject of data set [1] is Puccinia recondita f. Sp. Tritici. The experiment in a line: Puccinia recondita f. sp. tritici / wheat / leaf disc preventative (brown rust). Particulars: foliar, 200 ppm in the applied formulation, wheat leaf segments cv. Kanzler, preventative (inoculated 1 day after application), compared to untreated, read-out: disease control. The class given is in vivo. The essentials: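 Sprayed at 200 ppm one day ahead of spore inoculation, wheat leaf segments of cultivar Kanzler sat on agar under 19° C., 75% relative humidity and alternating 12-hour light and dark. Efficacy was taken as percent disease control relative to untreated segments after 7 to 9 days.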

Data set [2] has the same test system. The experiment in a line: Puccinia recondita f. sp. tritici / wheat / leaf disc curative (brown rust). Type of data set: in vivo. As to conditions: foliar, 24 h, 200 ppm in the applied formulation, wheat leaf segments cv. Kanzler, curative (applied 1 day after inoculation), compared to untreated, read-out: disease control. The essentials: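 Spray application came one day after spore inoculation of Kanzler wheat leaf segments kept on agar. Conditions: 19° C, 75% relative humidity, dark before treatment and 12 h light/12 h dark after. Efficacy = % disease control compared with untreated, 6–8 days post-application.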

In data set [3] the test system is Phakopsora pachyrhizi. The experiment in a line: Phakopsora pachyrhizi / soybean / leaf disc preventative (Asian soybean rust). Particulars: foliar, 200 ppm in the applied formulation, soybean leaf disks, compared to untreated, read-out: disease control. Type of data set: in vivo. An outline of the steps: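 Read-out is percent disease control relative to untreated check discs, assessed once untreated discs show adequate disease, 12 to 14 days after application. Compounds, tested at 200 ppm in the applied formulation, are sprayed onto soybean leaf discs one day before inoculation with a spore suspension.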

The subject of data set [4] is Glomerella lacenarium (Colletotrichum lagenarium). As to the kind of experiment: Glomerella lagenarium liquid culture / cucumber / preventative (anthracnose). The class given is cell-based. Particulars: Colletotrichum orbiculare; 20 ppm in the applied formulation; liquid culture (PDB), growth inhibition measured photometrically 3 to 4 days after application; compared to untreated; read-out: disease control. An outline of the steps: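 Conidia from cryogenic storage were mixed into potato dextrose broth. This was added to compound diluted from DMSO into 0.025% Tween20, tested at 20 ppm. Plates were incubated in the dark at 24 °C and 96% relative humidity, and growth was read photometrically after 2–7 days as % activity versus untreated check.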

Data set [5] deals with Uromyces viciae-fabae. As to the kind of experiment: Uromyces viciae-fabae / field bean / leaf disc preventative (faba-bean rust). Particulars: foliar, 288 h, 100 ppm in the applied formulation, field bean leaf discs, compared to untreated, read-out: disease control. The class given is in vivo. As for the experimental part:
Leaf disks or leaf segments of various plant species are cut from plants grown in a greenhouse. The cut leaf disks or segments are placed in multiwell plates (24-well format) onto water agar. The leaf disks are sprayed with a test solution before (preventative) or after (curative) inoculation. Compounds to be tested are prepared as DMSO solutions (max. 10 mg/ml) which are diluted to the appropriate concentration with 0.025% Tween20 just before spraying. The inoculated leaf disks or segments are incubated under defined conditions (temperature, relative humidity, light, etc.) according to the respective test system. A single evaluation of disease level is carried out 3 to 14 days after inoculation, depending on the pathosystem. Percent disease control relative to the untreated check leaf disks or segments is then calculated. Field bean leaf discs are placed on water agar in multiwell plates (96-well format) and 10 μl of the formulated test compound diluted in acetone and a spreader pipetted onto the leaf disc. Two hours after application leaf discs are inoculated by spraying a spore suspension on the lower leaf surface. The leaf discs are incubated in a climate cabinet at 22° C. with 18 hour light/day and 70% relative humidity. The activity of a compound is assessed as percent disease control compared to untreated when an appropriate level of disease damage appears in untreated check leaf disks (12 days after application). The following compounds at 100 ppm in the applied formulation give at least 80% disease control in this test when compared to untreated control leaf discs under the same conditions, which show extensive disease development.

As usually defined, the melting point is the temperature of the solid-liquid transition. `C#CC(C)(C)C(=O)NCc1ccc(-c2noc(C(F)(F)F)n2)cc1` [Compound 1.3, 2,2-dimethyl-N-[[4-[5-(trifluoromethyl)-1,2,4-oxadiazol-3-yl]phenyl]methyl]but-3-ynamide] displayed a melting point of 55 to 60 °C. Besides, the pest or weed control at 200 ppm in data set [1] is ≥ 80%. Also, in data set [2], the pest or weed control at 200 ppm was ≥ 80%. The pest or weed control at 200 ppm in data set [3] is ≥ 80%. Besides, the inhibition of growth at 20 ppm in data set [4] was ≥ 80%. Moreover, in data set [5], the pest or weed control at 100 ppm is ≥ 80%.
In turn, `COC(C)C(=O)NCc1ccc(-c2noc(C(F)(F)F)n2)cc1` (stereo not shown) [Compound 1.23, 2-methoxy-N-[[4-[5-(trifluoromethyl)-1,2,4-oxadiazol-3-yl]phenyl]methyl]propanamide] gave a melting point of 94 to 100 °C. In data set [1], the pest or weed control at 200 ppm was ≥ 80%. The pest or weed control at 200 ppm in data set [2] was ≥ 80%. In addition, in data set [3], the pest or weed control at 200 ppm is ≥ 80%. Further, the inhibition of growth at 20 ppm in data set [4] was ≥ 80%. Also, the pest or weed control at 100 ppm in data set [5] was ≥ 80%.
The compound `CC(C)(C)C(=O)NCc1ccc(-c2noc(C(F)(F)F)n2)cc1` [Compound 1.2, 2,2-dimethyl-N-[[4-[5-(trifluoromethyl)-1,2,4-oxadiazol-3-yl]phenyl]methyl]propanamide] returned a melting point of 120 to 127 °C. The pest or weed control at 200 ppm in data set [1] was ≥ 80%. In data set [2], the pest or weed control at 200 ppm was ≥ 80%. Besides, the pest or weed control at 200 ppm in data set [3] is ≥ 80%. In data set [4], the inhibition of growth at 20 ppm was ≥ 80%. Also, the pest or weed control at 100 ppm in data set [5] was ≥ 80%.
In the case of `CC(C)(CCl)C(=O)NCc1ccc(-c2noc(C(F)(F)F)n2)cc1` [Compound 1.13, 3-chloro-2,2-dimethyl-N-[[4-[5-(trifluoromethyl)-1,2,4-oxadiazol-3-yl]phenyl]methyl]propanamide], the pest or weed control at 200 ppm in data set [1], in data set [2] and in data set [3] was ≥ 80% each time. The inhibition of growth at 20 ppm in data set [4] is ≥ 80%. Also, in data set [5], the pest or weed control at 100 ppm is ≥ 80%.
Turning to `C#CCCC(=O)NCc1ccc(-c2noc(C(F)(F)F)n2)cc1` [Compound 1.5, N-[[4-[5-(trifluoromethyl)-1,2,4-oxadiazol-3-yl]phenyl]methyl]pent-4-ynamide], the pest or weed control at 200 ppm in data set [1], in data set [2] and in data set [3] was ≥ 80% each time. Further, the inhibition of growth at 20 ppm in data set [4] was ≥ 80%. For the same compound, in data set [5], the pest or weed control at 100 ppm was ≥ 80%.

The record behind these values is patent US10501425B2, “Microbiocidal oxadiazole derivatives” (SYNGENTA PARTICIPATIONS AG, priority 2015, dated 2019).
